Measurements reported in US20210052600A1, “THERAPEUTIC AGENTS FOR STRESS URINARY INCONTINENCE AND INCOTINENCE OF FECES” (Takeda Pharmaceutical Company Limited, priority 2017, published 2021).

Experiments:
[1] = Body weight of obese rats (DIO-F344) under continuous subcutaneous administration and effective plasma concentration; type: in vivo, rat; details: for Change in body weight (% change): mean ± SEM
Description: Forty male DIO-F344 rats bred with high fat diet (42 kcal % fat) were used. On the day before surgery, the rats were grouped on the basis of their body weight. Compound A′ and Compound B′ were each dissolved in saline. Osmotic pumps filled with the Compound A′ or Compound B′ solution were subcutaneously implanted in the rats under isoflurane anesthesia. The body weight just after surgery was used as a Pre value, and the body weight was measured every day until 14 days after surgery. Regarding the averages in the body weight on Day 14, the difference in the mean averages of the drug-treated group and the vehicle-treated group was analyzed by the one-tailed Williams' test.
The average Day 14 plasma concentration from the values of each rat measured in the morning and afternoon was used as a plasma concentration for the animal. The rate of change in body weight was calculated from the values measured just after and 14 days after osmotic pump implantation. The rate (average rate) of change of the vehicle group was subtracted from that of each drug-administered rat to plot the plasma concentration and the change in body weight. The plasma concentration at which the drug lowered the body weight by 3.8% was calculated by linear regression analysis.

urethral resistance = test: Rat urethral resistance (LPP) measured by high speed infusion of saline into the bladder; type: in vivo; details: for LPP Post: 30 minutes after administration; for LPP Post / LPP Increase / LPP Pre: mean ± SEM; for LPP Increase: Post minus Pre; for LPP Pre: before administration
Description: The rats were anesthetized with isoflurane. Their spinal cord was transected at the T8-T9 (the eighth thoracic cord—the ninth thoracic cord) level. After opening of the bladder dome, two polyethylene tubes (PE-100) were inserted into the bladder. The incised portion of the bladder was closed with sutures, and the other incisions were also closed. The rats were placed in Bollman cages. The catheter for intravesical pressure measurement was connected to a pressure transducer, while the catheter for saline filling was connected to a syringe filled with Evans Blue-dyed saline. Change in intravesical pressure was recorded using the pressure transducer via an electric signal amplifier and an analog-to-digital converter. After recovery of the animals from anesthesia, the intravesical pressure measurement was started, and saline was infused at a speed of 0.1 mL/sec into the bladder using an infusion pump. The infusion was stopped when the leakage of the saline from the urethral orifice was observed. Immediately thereafter, the bladder was emptied by releasing the pressure. In this operation, the peak of recorded intravesical pressure during the saline infusion was used as LPP in this Example. This measurement was repeated, and the average LPP from the last three measurements was used as the LPP value of the trial. The mean from 2 such trials was used as a Pre value. 0.5% MC was used as the vehicle. […] The difference in LPP from the Pre value (increased amount of LPP) was calculated. Regarding change in LPP before and after drug administration, the differences between the mean values of the drug-treated and vehicle-treated groups were analyzed by the one-tailed Williams' test.

anus-closing functions = test: Rat anus-closing functions (Anal LPP) measured by high speed infusion of saline into the rectum; type: in vivo; details: 5 minutes after administration, mean ± SEM
Excerpt: Thirty six female SD rats were used. After overnight fasting, rats were intraperitoneally administered with urethane for anesthesia, and isoflurane inhalation was further added during surgery. The abdomen was incised to expose the rectum, and a small incision of the rectum was made. A polyethylene catheter (SP61, Natsume) was inserted into the rectum through the rectum incision, and the tip of the catheter was positioned around 5 mm from the anal orifice. The other end of the catheter was connected with a pressure transducer and an infusion pump via three-way stopcocks, and the change in pressure in the rectum was measured using the pressure transducer, an electric signal amplifier, and an analog-to-digital converter. For administrating drugs, a polyethylene catheter (SP45, Natsume) was inserted into the femoral vein after exposing the vein by small incision.
After recovery period from surgery, while saline was infused at a speed of 0.1 mL/sec into the rectum using an infusion pump, change in the measured pressure—was observed. The infusion was stopped when the leakage of the saline from the anal orifice was observed. In the procedure, sudden decrease in the pressure was observed during the infusion with the leakage of saline from the anal orifice. The peak value of the pressure recorded in the rectum during the course of the procedures was defined as “an Anal LPP” in this Example. […] The Anal LPP was again measured in the same way 5 minutes after drug administration. The difference in Anal LPP from the Pre value (increased amount of Anal LPP) was calculated. Regarding change in Anal LPP before and after drug administration, the differences between the mean values of the drug-treated and vehicle-treated groups were analyzed by the one-tailed Williams' test or Student's t-test.

CC(C)N(C)c1cnc2c(n1)OCCNC2.Cl [Compound A′, N-methyl-N-(1-methylethyl)-6,7,8,9-tetrahydropyrazino[2,3-f][1,4]oxazeine-3-amine]
Change in body weight (% change) ([1]; 1.35 mg/animal/day s.c. osmotic pump, day 3): −1.5 ± 0.5 % change | Change in body weight (% change) ([1]; 1.35 mg/animal/day s.c. osmotic pump, day 7): −2.3 ± 0.8 % change | Change in body weight (% change) ([1]; 1.35 mg/animal/day s.c. osmotic pump, day 10): −4.5 ± 0.8 % change | Change in body weight (% change) ([1]; 1.35 mg/animal/day s.c. osmotic pump, day 14): −4.7 ± 0.8 % change | Change in body weight (% change) ([1]; 4.5 mg/animal/day s.c. osmotic pump, day 3): −0.6 ± 0.2 % change | Change in body weight (% change) ([1]; 4.5 mg/animal/day s.c. osmotic pump, day 7): −2.4 ± 0.4 % change | Change in body weight (% change) ([1]; 4.5 mg/animal/day s.c. osmotic pump, day 10): −3.9 ± 0.4 % change | Change in body weight (% change) ([1]; 4.5 mg/animal/day s.c. osmotic pump, day 14): −4.6 ± 0.6 % change | Change in body weight (% change) ([1]; 13.5 mg/animal/day s.c. osmotic pump, day 3): −2.7 ± 0.2 % change | Change in body weight (% change) ([1]; 13.5 mg/animal/day s.c. osmotic pump, day 7): −4.8 ± 0.3 % change | Change in body weight (% change) ([1]; 13.5 mg/animal/day s.c. osmotic pump, day 10): −6.9 ± 0.5 % change | Change in body weight (% change) ([1]; 13.5 mg/animal/day s.c. osmotic pump, day 14): −7.8 ± 0.5 % change | plasma concentration at which the drug lowered the body weight by 3.8% ([1]; DIO-F344 rats, day 14, vehicle-subtracted, linear regression analysis): 670 ng/mL | LPP Post (urethral resistance; 1.25 mg/kg p.o.): 63.2 ± 4.7 cmH2O | LPP Increase (urethral resistance; 1.25 mg/kg p.o.): 5.5 ± 3.0 cmH2O | LPP Pre (urethral resistance; 1.25 mg/kg p.o.): 57.7 ± 3.6 cmH2O | LPP Post (urethral resistance; 2.5 mg/kg p.o.): 70.2 ± 3.8 cmH2O | LPP Increase (urethral resistance; 2.5 mg/kg p.o.): 10.9 ± 2.2 cmH2O | LPP Pre (urethral resistance; 2.5 mg/kg p.o.): 59.2 ± 2.6 cmH2O | LPP Post (urethral resistance; 5 mg/kg p.o.): 75.9 ± 3.3 cmH2O | LPP Increase (urethral resistance; 5 mg/kg p.o.): 15.3 ± 3.7 cmH2O | LPP Pre (urethral resistance; 5 mg/kg p.o.): 60.6 ± 3.6 cmH2O | LPP Post (urethral resistance; 10 mg/kg p.o.): 78.4 ± 5.6 cmH2O | LPP Increase (urethral resistance; 10 mg/kg p.o.): 21.7 ± 4.4 cmH2O | LPP Pre (urethral resistance; 10 mg/kg p.o.): 56.7 ± 2.4 cmH2O | LPP Post (urethral resistance; 20 mg/kg p.o.): 77.7 ± 3.5 cmH2O | LPP Increase (urethral resistance; 20 mg/kg p.o.): 21.5 ± 3.4 cmH2O | LPP Pre (urethral resistance; 20 mg/kg p.o.): 56.3 ± 5.1 cmH2O | LPP10, the dose that increases LPP by 10 cm H2O (urethral resistance; oral administration, high speed saline infusion method): 1.6 mg/kg | Anal LPP Increase (anus-closing functions; 0.3 mg/kg i.v.): 6.2 ± 3.1 cmH2O | Anal LPP Increase (anus-closing functions; 1 mg/kg i.v.): 30.2 ± 9.6 cmH2O
